Measurements taken from patent US9822414B2, “In vitro method for predicting in vivo genotoxicity of chemical compounds” (priority 2011, dated 2017).
Several values for one entry are separate records, joined by “and”; a condition that tells them apart may be missing. Equal values may be shown once. Read-outs that look alike come from different tables or passages of the source.

Key:
Salmonella typhimurium = conditions: cited from earlier work
C10orf65/HOGA1 = experiment: Gene expression of C10orf65/HOGA1 in HepG2 cells exposed to compound (microarray, log2 treatment:control ratio); format: cell-based, human; conditions: for C10orf65/HOGA1: expression versus reference value, single measurement of three; for Log2 treatment: control ratio C10orf65/HOGA1: 24 h exposure, Ames negative compounds, one line per replicate of triplicate experiments
[1] = tested on: conventional in vitro genotoxicity assays; conditions: cited from earlier work
SLC40A1 = experiment: Gene expression of SLC40A1 in HepG2 cells exposed to compound (microarray, log2 treatment:control ratio); format: cell-based, human; conditions: for Log2 treatment: control ratio SLC40A1: 24 h exposure, Ames negative compounds, one line per replicate of triplicate experiments
rodents = conditions: cited from earlier work
PNMA6A = experiment: Gene expression of PNMA6A in HepG2 cells exposed to compound (microarray, log2 treatment:control ratio); format: cell-based, human; conditions: for Log2 treatment: control ratio PNMA6A: 24 h exposure, Ames negative compounds, one line per replicate of triplicate experiments
[2] = HepG2 cells, expression versus reference value, single measurement of three
[3] = standard in vivo genotoxicity designation

SMILES	C10orf65/HOGA1 (C10orf65/HOGA1)	In vitro GTX [1]	SLC40A1 (SLC40A1; [2])	In vivo GTX (rodents; in vivo)	Standard (rodents; in vivo)	PNMA6A (PNMA6A; [2])	At least ⅔ genes +? (HepG2 cell)	Average result over three measurements (HepG2 cell)	Prediction (class prediction results using the method of the invention) (HepG2 cell)	further results
CC(=O)Nc1ccc(O)cc1 [APAP]	− (below the reference value)	+	− (below the reference value)	+	GTX					Ames (Salmonella typhimurium; Ames results based on NTP data): −
ClC(Cl)Br [BDCM]		+	− (below the reference value)	−	NGTX	− (below the reference value)	NGTX	NGTX	NGTX	Ames (Salmonella typhimurium): −; Log2 treatment: control ratio C10orf65/HOGA1 (C10orf65/HOGA1): 0.113 and 0.258 and 0.086; Log2 treatment: control ratio PNMA6A (PNMA6A; HepG2 cells): 0.22 and −0.289 and −0.185; Log2 treatment: control ratio SLC40A1 (SLC40A1; HepG2 cells): −0.891 and −0.178 and −0.017
c1ccc2c(c1)cc1ccc3cccc4ccc2c1c34 [BaP]		+		+						
O=C1CCCCCN1 [CAP]		−	− (below the reference value)	−	NGTX			NGTX	NGTX+	Ames (Salmonella typhimurium; Ames results based on NTP data): −; Log2 treatment: control ratio C10orf65/HOGA1 (C10orf65/HOGA1): 0.203 and 0.223 and 0.138; Log2 treatment: control ratio PNMA6A (PNMA6A; HepG2 cells): 0.312 and −0.168 and −0.165; Log2 treatment: control ratio SLC40A1 (SLC40A1; HepG2 cells): −0.607 and −0.032 and 0.265
ClC(Cl)(Cl)Cl [CCI4]			− (below the reference value)							Standard (rodents; [3]): NGTX
ClC(Cl)(Cl)Cl [CCl4]		+		−					NGTX+	Ames (Salmonella typhimurium): −; Log2 treatment: control ratio C10orf65/HOGA1 (C10orf65/HOGA1): 0.361 and 0.073 and −0.083; Log2 treatment: control ratio PNMA6A (PNMA6A; HepG2 cells): 0.412 and −0.425 and −0.14; Log2 treatment: control ratio SLC40A1 (SLC40A1; HepG2 cells): −0.888 and −0.041 and −0.185
O=c1ccc2ccccc2o1 [Cou]	− (below the reference value)	−	− (below the reference value)	−	NGTX	− (below the reference value)	NGTX	NGTX	NGTX	Ames (Salmonella typhimurium; Ames results based on NTP data): −; Log2 treatment: control ratio C10orf65/HOGA1 (C10orf65/HOGA1): −0.481 and −0.483; Log2 treatment: control ratio C10orf65/HOGA1 (C10orf65/HOGA1; listed as COU): −0.069; Log2 treatment: control ratio PNMA6A (PNMA6A; HepG2 cells): 0.073 and 0.081; Log2 treatment: control ratio PNMA6A (PNMA6A; HepG2 cells, listed as COU): 0.14; Log2 treatment: control ratio SLC40A1 (SLC40A1; HepG2 cells): −0.215 and −0.309; Log2 treatment: control ratio SLC40A1 (SLC40A1; HepG2 cells, listed as COU): −0.104
COc1cc(/C=C/C(=O)CC(=O)/C=C/c2ccc(O)c(OC)c2)ccc1O [Cur]	− (below the reference value)	+	− (below the reference value)	−	NGTX		NGTX	NGTX	NGTX	Ames (Salmonella typhimurium; Ames results based on NTP data): −; Log2 treatment: control ratio C10orf65/HOGA1 (C10orf65/HOGA1): 0.113 and 0.028 and −0.293; Log2 treatment: control ratio PNMA6A (PNMA6A; HepG2 cells): −0.138 and −0.135 and 0.263; Log2 treatment: control ratio SLC40A1 (SLC40A1; HepG2 cells): 0.174 and 0.252 and 0.253
CCCCC(CC)COC(=O)c1ccccc1C(=O)OCC(CC)CCCC (stereo not drawn) [DEHP]	− (below the reference value)	−	− (below the reference value)		NGTX	− (below the reference value)	NGTX	NGTX	NGTX	Ames (Salmonella typhimurium): −; Log2 treatment: control ratio PNMA6A (PNMA6A; HepG2 cells, listed as DEPH): −0.264 and −0.841 and −0.034; Log2 treatment: control ratio SLC40A1 (SLC40A1; HepG2 cells, listed as DEPH): 0.249 and −0.387 and 0.234
CN(C)N=O [DMN]		+		+				GTX	GTX+	Ames (Salmonella typhimurium): +; Standard (in vivo genotoxicity designation) (rodents; in vivo): GTX
O=C(O)Cc1ccccc1Nc1c(Cl)cccc1Cl [Diclo]	− (below the reference value)		− (below the reference value)		NGTX					
ClC1C(Cl)C(Cl)C(Cl)C(Cl)C1Cl (stereo not drawn) [HCH]	− (below the reference value)		+ (above the reference value)		NGTX	− (below the reference value)	NGTX	NGTX	NGTX	Log2 treatment: control ratio C10orf65/HOGA1 (C10orf65/HOGA1): −0.367 and −0.143 and −0.165; Log2 treatment: control ratio PNMA6A (PNMA6A; HepG2 cells): −0.604 and −0.2 and 0.012; Log2 treatment: control ratio SLC40A1 (SLC40A1; HepG2 cells): 0.334 and 0.924 and 0.712
CO[C@@]12[C@H](COC(N)=O)C3=C(C(=O)C(C)=C(N)C3=O)N1C[C@@H]1N[C@@H]12 [MMC]				+						
O=[N+]([O-])c1ccccc1 [NBZ]		−	− (below the reference value)	−	NGTX					
Oc1c(Cl)c(Cl)c(Cl)c(Cl)c1Cl [PCP]	− (below the reference value)					− (below the reference value)				Standard (rodents; [3]): NGTX
Oc1ccccc1 [Ph, Phenol]		+		+	GTX		GTX	GTX	GTX	Ames (Salmonella typhimurium): −; PNMA6A (PNMA6A): + (key: +: above the reference value; −: below the reference value); SLC40A1 (SLC40A1): + (key: +: above the reference value; −: below the reference value)
CC(=O)[C@H]1CC[C@H]2[C@@H]3CCC4=CC(=O)CC[C@]4(C)[C@H]3CC[C@]12C [Prog]			− (below the reference value)	−	NGTX	− (below the reference value)				
Cc1noc(NS(=O)(=O)c2ccc(N)cc2)c1C [Sulfi]	− (below the reference value)			−	NGTX	− (below the reference value)				
O=C1O[C@H]([C@@H](O)CO)C(O)=C1O [VitC]	+ (above the reference value)					+ (above the reference value)	GTX	GTX	GTX	In vivo GTX (rodents; positive when at least one in vivo assay (MN, CA) positive, equivocal considered positive): +; Standard (rodents; [3]): GTX
CC1(C)S[C@@H]2[C@H](NC(=O)[C@H](N)c3ccccc3)C(=O)N2[C@H]1C(=O)O.O.O.O [ampC]	− (below the reference value)		− (below the reference value)							Standard (rodents; [3]): NGTX
Cl[C@H]1[C@H](Cl)[C@@H](Cl)[C@@H](Cl)[C@H](Cl)[C@H]1Cl [γ-HCH]		−		−						Ames (Salmonella typhimurium): −
